Laboratory results from patent US20100040565A1, “ACTIVE DELIVERY SYSTEMS FORMULATIONS” (Castle Beach, LLC, priority 2008, published 2010).

Legend:
[1] = type: physicochemical
Description: DEET is incorporated into the pores, if any present, and onto the surfaces of a carrier. The evaporation rate of DEET from a thin film was then measured by weight. The film was smeared onto a glass slide and its weight was measured as a function of time. The initial weight of the film was 0.0231 grams and the area that was covered was […] (thickness ca 10 microns). The weight of the film leveled off at 0.019 grams when the DEET was fully evaporated, approximately 36 hours after application. Half of the DEET, about 2 milligrams on 3 square inches, remained 16 hours after application.

[2] = Behaviour of the permethrin-on-carrier formulation on substrates (activity duration, spreading, adherence); details: permethrin trapped in porous carrier (Silcron G100) in barrier/transfer agent composition

Amount of DEET remaining ([1]; 16 h)	Time after application at which half of the DEET remained ([1]; thin film ca 10 microns on glass slide)	Time until DEET was fully evaporated from the film ([1]; thin film ca 10 microns smeared on glass slide, initial film weight 0.0231 grams, time after application)	Weight at which the film leveled off ([1]; when the DEET was fully evaporated, initial film weight 0.0231 grams)	Structure (SMILES)	Activity duration of permethrin in the formulation [2]
about 2 milligrams	16 h	approximately 36 hours	0.019 grams	CCN(CC)C(=O)c1cccc(C)c1 [DEET]	–
–	–	–	–	CC1(C)C(C=C(Cl)Cl)C1C(=O)OCc1cccc(Oc2ccccc2)c1 (centres unmarked) [permethrin]	significantly prolonged
